Results: US12338256B2, “Aza-tetracyclic oxazepine compounds and uses thereof” (Genentech, Inc., priority 2022, dated 2025)
Where two headings read alike, the source gives them in different places.

Columns and labels:
Format in all cases: cell-based
[1] = test system: AsPC-1 (homozygous mutant KRAS G12D human pancreatic cell line); assay: KRAS 3D-Cell Proliferation Assay, AsPC-1 (Example 503); details: AsPC-1 3D culture, 7 days, CellTiter-Glo 3D, read-out: Prolif AsPC-1 3D ATP IC50
Procedure: Example 503: KRAS 3D-Cell Proliferation Assays. Cellular potencies of compounds are assessed by evaluating inhibition of proliferation in 3D cultures of homozygous mutant KRAS G12D human pancreatic cell lines (AsPC-1 and HPAC) as compared to a KRAS wild type human lung adenocarcinoma cell line (PC-9 and/or H1975). Cells are seeded into 384-well black round-bottom, ultra-low attachment assay plates in 50 uL cell growth medium (RPMI-1640 with 10% fetal bovine serum and 2 mM L-glutamine). After overnight incubation at 37° C. and 5% CO2, compounds solubilized in DMSO are added as dilution series to the wells in a total volume of 150 nL (0.3% DMSO final). The cells are incubated for 7 days at 37° C. and 5% CO2. Cell proliferation is quantitated by addition of 40 uL/well of CellTiter-GloÒ 3D (Promega), and the well contents are mixed 20× at high speed using liquid handling automation workstation (Bravo with 384-well head) and centrifuged at 1500 rpm for 2 minutes to eliminate bubbles. This reagent in combination with mechanical disruption releases the cellular ATP to promote activity in a luciferase-based enzyme/substrate chemiluminescent detection system. After a 30-minute incubation under ambient conditions with shaking and an additional 10 minutes without shaking, the luminescence is read on a plate reader (e.g., EnVision [PerkinElmer]). The results are normalized to percent inhibition based on the following control samples: DMSO (0% inhibition) and 1 μM staurosporine (100% inhibition). The normalized luminescence results are plotted against compound concentration, and the data are fit to a 4-parameter Hill equation to determine the IC50 values.

[2] = test system: HPAC (homozygous mutant KRAS G12D human pancreatic cell line); assay: KRAS 3D-Cell Proliferation Assay, HPAC (Example 503); details: HPAC 3D culture, 7 days, CellTiter-Glo 3D, read-out: Prolif HPAC 3D ATP IC50
In short: (§1)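 KRAS G12D homozygous pancreatic lines and KRAS wild-type lung lines grown as 3D cultures in ultra-low-attachment wells in RPMI-1640/10% FBS, dosed after overnight with compound dilution series (0.3% DMSO final) for 7 days at 37 °C. ATP read by CellTiter-Glo 3D luminescence; IC50 from 4-parameter Hill fit, normalized to DMSO and 1 μM staurosporine.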

[3] = test system: H1975 (KRAS wild type human lung adenocarcinoma cell line); assay: KRAS 3D-Cell Proliferation Assay, H1975 (Example 503); details: H1975 3D culture, 7 days, CellTiter-Glo 3D, read-out: Prolif H1975 3D ATP IC50
In short: as §1

IC50 [1]	IC50 [3]	SMILES	IC50 ([1]; Homo sapiens, ASPC1, 168 h)	IC50 ([2]; Homo sapiens, HPAC, 168 h)	IC50 ([3]; Homo sapiens, NCI-H1975, 168 h)	IC50 [2]
–	–	C[C@@H]1Oc2nc(-c3cc(N)c(F)cc3C(F)(F)F)c(F)c3nc(OC[C@@H]4CC[C@H]5COCCN54)nc(c23)N2C[C@H]3CC[C@H](N3)[C@@H]12 [Compound 70, 2-Fluoro-5-((5S,5aS,6S,9R)-1-fluoro-12-(((6S,8aS)-hexahydro-1H-pyrrolo[2,1-c][1,4]oxazin-6-yl)methoxy)-5-methyl-5a,6,7,8,9,10-hexahydro-5H-4-oxa-3,10a,11,13,14-pentaaza-6,9-methanonaphtho[1,8-ab]heptalen-2-yl)-4-(trifluoromethyl)aniline]	44.1 nM	11 nM	1700 nM	–
–	–	Cc1nc(N)cc(-c2nc3c4c(nc(OC[C@@H]5CC[C@H]6COCCN65)nc4c2F)N2C[C@H]4CC[C@H](N4)[C@H]2[C@H](C)O3)c1C(F)(F)F [Compound 112, 4-((5S,5aS,6S,9R)-1-fluoro-12-(((6S,8aS)-hexahydro-1H-pyrrolo[2,1-c][1,4]oxazin-6-yl)methoxy)-5-methyl-5a,6,7,8,9,10-hexahydro-5H-4-oxa-3,10a,11,13,14-pentaaza-6,9-methanonaphtho[1,8-ab]heptalen-2-yl)-6-methyl-5-(trifluoromethyl)pyridin-2-amine]	31.6 nM	7.59 nM	1470 nM	–
–	–	Cc1nc(N)cc(-c2nc3c4c(nc(OC[C@@]56CCCN5CC5(CC5(F)F)C6)nc4c2F)N2C[C@H]4CC[C@H](N4)[C@H]2[C@H](C)O3)c1C(F)(F)F (stereo partly drawn) [Compound 216, 4-((5S,5aS,6S,9R)-12-(((7a′S)-2,2-Difluorodihydro-1′,3′H-spiro[cyclopropane-1,2′-pyrrolizin]-7a′(5′H)-yl)methoxy)-1-fluoro-5-methyl-5a,6,7,8,9,10-hexahydro-5H-4-oxa-3,10a,11,13,14-pentaaza[6,9]methanonaphtho[1,8-ab]heptalene-2-yl)-6-methyl-5-(trifluoromethyl)pyridin-2-amine]	0.6 nM	0.893 nM	161 nM	–
–	–	Cc1cc(N)c(F)c(-c2nc3c4c(nc(OC[C@@H]5CC[C@H]6COCCN65)nc4c2F)N2C[C@H]4CC[C@H](N4)[C@H]2[C@H](C)O3)c1C(F)(F)F [Compound 97, 2-Fluoro-3-((5S,5aS,6S,9R)-1-fluoro-12-(((6S,8aS)-hexahydro-1H-pyrrolo[2,1-c][1,4]oxazin-6-yl)methoxy)-5-methyl-5a,6,7,8,9,10-hexahydro-5H-4-oxa-3,10a,11,13,14-pentaaza-6,9-methanonaphtho[1,8-ab]heptalen-2-yl)-5-methyl-4-(trifluoromethyl)aniline]	10.1 nM	3.21 nM	573 nM	–
0.6 nM	374 nM	Cc1c(F)c(N)cc(-c2nc3c4c(nc(OC[C@]5(CN6CC7(COC7)C6)CC5(F)F)nc4c2F)N2C[C@H]4CC[C@H](N4)[C@H]2[C@H](C)O3)c1C(F)(F)F (mixture of isomers) [165 a]	–	–	–	0.63 nM
–	–	Cc1c(F)c(N)cc(-c2nc3c4c(nc(OCC5(CN6CC7(COC7)C6)CC5)nc4c2F)N2C[C@H]4CC[C@H](N4)[C@H]2[C@H](C)O3)c1C(F)(F)F [Compound 174, 5-((5S,5aS,6S,9R)-12-((1-((2-Oxa-6-azaspiro[3.3]heptan-6-yl)methyl)cyclopropyl)methoxy)-1-fluoro-5-methyl-5a,6,7,8,9,10-hexahydro-5H-4-oxa-3,10a,11,13,14-pentaaza[6,9]methanonaphtho[1,8-ab]heptalene-2-yl)-2-fluoro-3-methyl-4-(trifluoromethyl)aniline]	1.3 nM	3.86 nM	227 nM	–
–	–	C#Cc1c(F)ccc2cccc(-c3nc4c5c(nc(OCC67CCN6CC(F)(F)C7)nc5c3F)N3C[C@H]5CC[C@H](N5)[C@H]3[C@H](C)O4)c12 (stereo partly drawn) [Compound 22, (5S,5aS,6S,9R)-12-((3,3-difluoro-1-azabicyclo[3.2.0]heptan-5-yl)methoxy)-2-(8-ethynyl-7-fluoronaphthalen-1-yl)-1-fluoro-5-methyl-5a,6,7,8,9,10-hexahydro-5H-4-oxa-3,10a,11,13,14-pentaaza-6,9-methanonaphtho[1,8-ab]heptalene]	60.3 nM	139 nM	20000 nM	–
–	–	Cc1c(F)c(N)cc(-c2nc3c4c(nc(OCC5(CN6CCOCC6)CC5)nc4c2F)N2C[C@H]4CC[C@H](N4)[C@H]2[C@H](C)O3)c1CC(F)F [Compound 156, 4-(2,2-Difluoroethyl)-2-fluoro-5-((5S,5aS,6S,9R)-1-fluoro-5-methyl-12-((1-(morpholinomethyl)cyclopropyl)methoxy)-5a,6,7,8,9,10-hexahydro-5H-4-oxa-3,10a,11,13,14-pentaaza-6,9-methanonaphtho[1,8-ab]heptalen-2-yl)-3-methylaniline]	9.4 nM	2.94 nM	776 nM	–
–	–	Cc1c(F)c(N)cc(-c2nc3c4c(nc(OC[C@@]56CCCN5C[C@H](F)C6)nc4c2F)N2C[C@H]4CC[C@H](N4)[C@H]2CO3)c1C(F)(F)F [Compound 61, 2-Fluoro-5-((5aS,6S,9R)-1-fluoro-12-(((2R,7aS)-2-fluorotetrahydro-1H-pyrrolizin-7a(5H)-yl)methoxy)-5a,6,7,8,9,10-hexahydro-5H-4-oxa-3,10a,11,13,14-pentaaza-6,9-methanonaphtho[1,8-ab]heptalen-2-yl)-3-methyl-4-(trifluoromethyl)aniline]	44.5 nM	21.3 nM	2610 nM	–
–	–	Cc1nc(N)c(F)c(-c2nc3c4c(nc(OC[C@@]56CCCN5C[C@H](F)C6)nc4c2F)N2C[C@H]4CC[C@H](N4)[C@H]2[C@H](C)O3)c1C(F)(F)F [Compound 194, 3-Fluoro-4-((5S,5aS,6S,9R)-1-fluoro-12-(((2R,7aS)-2-fluorotetrahydro-1H-pyrrolizin-7a(5H)-yl)methoxy)-5-methyl-5a,6,7,8,9,10-hexahydro-5H-4-oxa-3,10a,11,13,14-pentaaza-6,9-methanonaphtho[1,8-ab]heptalen-2-yl)-6-methyl-5-(trifluoromethyl)pyridin-2-amine]	2.7 nM	4.99 nM	919 nM	–
–	–	Cc1c(F)c(N)c(F)c(-c2nc3c4c(nc(OCC5(CN6CCOCC6)CC5)nc4c2F)N2C[C@H]4CC[C@H](N4)[C@H]2[C@H](C)O3)c1C(F)(F)F [Compound 224, 2,6-Difluoro-3-((5S,5aS,6S,9R)-1-fluoro-5-methyl-12-((1-(morpholinomethyl)cyclopropyl)methoxy)-5a,6,7,8,9,10-hexahydro-5H-4-oxa-3,10a,11,13,14-pentaaza-6,9-methanonaphtho[1,8-ab]heptalen-2-yl)-5-methyl-4-(trifluoromethyl)aniline]	3.5 nM	2.72 nM	711 nM	–
–	–	Cc1c(F)c(N)cc(-c2nc3c4c(nc(OC[C@@H]5CC[C@H]6COCCN65)nc4c2F)N2C[C@H]4CC[C@H](N4)[C@H]2[C@H](C(F)(F)F)O3)c1C(F)(F)F [Compound 245, 2-Fluoro-5-((5R,5aS,6S,9R)-1-fluoro-12-(((6S,8aS)-hexahydro-1H-pyrrolo[2,1-c][1,4]oxazin-6-yl)methoxy)-5-(trifluoromethyl)-5a,6,7,8,9,10-hexahydro-5H-4-oxa-3,10a,11,13,14-pentaaza-6,9-methanonaphtho[1,8-ab]heptalene-2-yl)-3-methyl-4-(trifluoromethyl)aniline]	3.6 nM	4.13 nM	739 nM	–
–	–	Cc1c(F)c(N)cc(-c2nc3c4c(nc(OC[C@@]56CCCN5C[C@H](F)C6)nc4c2F)N2C[C@H]4CC[C@H](N4)[C@@H]2[C@@H](C(F)(F)F)O3)c1C(F)(F)F [Compound 248, 2-Fluoro-5-((5S,5aR,6S,9R)-1-fluoro-12-(((2R,7aS)-2-fluorotetrahydro-1H-pyrrolizin-7a(5H)-yl)methoxy)-5-(trifluoromethyl)-5a,6,7,8,9,10-hexahydro-5H-4-oxa-3,10a,11,13,14-pentaaza-6,9-methanonaphtho[1,8-ab]heptalene-2-yl)-3-methyl-4-(trifluoromethyl)aniline]	27.9 nM	12.5 nM	244 nM	–
